Measured values taken from patent US5846720A, “Methods of determining chemicals that modulate expression of genes associated with cardiovascular disease” (Oncogene Science, Inc., priority 1996, dated 1998).
Where two headings read alike, the source gives them in different places.

What was measured:
[1] = tested on: G-CSF promoter; experiment: G-CSF promoter/luciferase reporter assay (high-throughput screen I), G21 cells; conditions: for GCSF fold induction relative to solvent control: transcriptional activators, Table 2, 6 h incubation; for G-CSF promoter induction: G21, 7 hours, serum-free
[2] = tested on: hGH promoter; experiment: hGH promoter/luciferase reporter assay (high-throughput screen I), 532 cells; assay type: cell-based, rat; conditions: transcriptional activators, Table 2; 6 h incubation
From the text: 6. a GC rat pituitary cell line, transfected with the growth hormone reporter plasmid, designated 532, deposited under ATCC Accession No. CRL 10663.

[3] = tested on: MMTV promoter; experiment: MMTV promoter/luciferase reporter assay (high-throughput screen I, control for specificity), M10 cells; assay type: cell-based, mouse; conditions: transcriptional activators, Table 2; original high-throughput assay; 6 h incubation
[4] = tested on: G-CSF promoter; experiment: G-CSF promoter/luciferase induction by known inducers, clone G1002; assay type: cell-based, human; conditions: for fold induction at 0.02 µg/mL: Homo sapiens, read-out: G-CSF promoter induction
Experimental: U5637 bladder carcinoma cells were transfected with pGVU150 (FIG. 21) or pGVU140 plus pTKNeo3 either by electroporation using a BRL (Gaithersburg, Md.) Cellporator electroporation device or by lipofection using BRL lipofectin and following the manufacturer's protocol. Clones were analyzed for luciferase expression and those testing positive expanded further and frozen in liquid nitrogen. Further analysis of 6 clones (G1002, G2005, G2071, G2085, G3014, G3031) included Southern blotting, reaction to known inducers, satisfactory attachment to microtiter plates and acceptable standard deviation in multiple luciferase expression assays. Clone G1002 was selected for use in the high throughput screen.
Cell clones with correctly integrated promoter/reporter constructs were analyzed for correct reaction to known transcriptional inducers. […] Both TNF-alpha and PMA induction levels of clone G1002 were influenced by the presence or absence of epidermal growth factor (EGF). […] The 9.3 fold induction by PMA in the absence of EGF was reduced to 5.6 fold by including EGF in the serum-free incubation mixture. Similar differences were observed, when EGF was substituted by 10% fetal calf serum.

[5] = tested on: GM-CSF promoter; experiment: GM-CSF promoter/luciferase induction by known inducers, GM1073, GM1088, GM1105; assay type: cell-based, human
Experimental: 6 clones generated by electroporation of U5637 cells with pGMLL103 NEO3 (FIG. 26) were subjected to further analysis as described above for G-CSF: --GM1073 (10 μg; circular); GM1081, GM1088 and GM1090 (5 μg; linear); and GM1098 and GM1105 (10 μg; linear). Clone GM1073 was selected for use in the high throughput screen.
Promoter induction experiments were also conducted with the GM-CSF reporter cell lines GM1073, GM1088 and GM1105, which were all shown to contain correctly inserted constructs (see above). […] Luciferase expression of clones GM1088 and GM1105 was induced by PMA 2.8 fold and 2 fold, respectively, while TNF-alpha induced both clones 2 fold. All three M-CSF clones responded to a 16-hour incubation with 2,000 units/ml Interferon-gamma by a 20-fold increase of luciferase expression from the M-CSF promoter.

[6] = cited from earlier work; for decrease in serum cholesterol levels: compared with HMGCoA reductase inhibitors like lovastatin
[7] = tested on: 5637 bladder carcinoma cells; experiment: G-CSF secretion, two-antibody sandwich immunoassay; assay type: cell-based, human; conditions: 48 hours, serum-containing media
Experimental: Supernatants from 5637 bladder carcinoma cells incubated with chemicals registering as positives in the G-CSF promoter/luciferase high throughput assay were assayed for secreted G-CSF protein using the two-antibody sandwich immunoassay (83). The G-CSF Assay kit manufactured by Oncogene Science, Inc. was used and the manufacturer's instructions were followed.
The levels of G-CSF in the cell supernatants were determined by a sandwich-antibody assay as described in above (FIG. 42).

[8] = G1002, 7 hours, serum-free, absence of EGF

With `O=c1[nH]c(=O)n([C@H]2C[C@H](O)[C@@H](CO)O2)cc1Br` [Chemical #543, 5-Bromo-2'-deoxyuridine] as the molecule, how does the “GCSF fold induction relative to solvent control” value [1] read?
The value was 7.17 fold.

What about the “hGH fold induction relative to solvent control” value [2] of the same molecule?
The value was 0.72 fold.

And the “MMTV fold induction relative to solvent control” value [3]?
Its value is 0.98 fold.

Which “GCSF fold induction relative to solvent control” value [1] does the source give for `CC(=O)N(C)c1ccc(N)cc1` [Chemical #1374, 4'-Amino-N-methyl-acetanilide] here?
The value was 11.03 fold.

What about the “hGH fold induction relative to solvent control” value [2] of the same molecule?
Its value is 0.05 fold.

What about the “MMTV fold induction relative to solvent control” value [3] of the same molecule?
The value was 1.05 fold.

For `CN(C)c1ccc(C(=C2C=CC(=[N+](C)C)C=C2)c2ccc(N(C)C)cc2)cc1` [Chemical #1780, Crystal Violet], which “GCSF fold induction relative to solvent control” value [1] is on record?
The value was 20.39 fold.

What about the “hGH fold induction relative to solvent control” value [2] of the same molecule?
Its value is 0.38 fold.

And the “MMTV fold induction relative to solvent control” value [3]?
Its value is 1.15 fold.

Which results are given for `O=NN(O)c1ccccc1` [Chemical #1783, Cupferron]?
GCSF fold induction relative to solvent control [1]: 6.55 fold; hGH fold induction relative to solvent control [2]: 0.32 fold; MMTV fold induction relative to solvent control [3]: 0.89 fold

For `CCCCCCCCCCCCCC(=O)O[C@@H]1[C@@H](C)[C@@]2(O)[C@@H](C=C(CO)C[C@]3(O)C(=O)C(C)=C[C@@H]23)[C@@H]2C(C)(C)[C@]12OC(C)=O` [PMA, phorbol-myristate-acetate, reference compound], which G-CSF promoter induction ([1]; absence of EGF) is on record?
Its G-CSF promoter induction is 34.6 fold.

And the G-CSF promoter induction ([1]; presence of EGF)?
The G-CSF promoter induction was 24.6 fold.

What about the G-CSF promoter induction [4, 8] of the same molecule?
Its G-CSF promoter induction is 9.3 fold.

What about the fold induction at 0.02 µg/mL ([4]; 7 h) of the same molecule?
Its fold induction at 0.02 µg/mL is 5.6.

What about the fold induction at 0.02 µg/mL ([4]; 10.5 h) of the same molecule?
The fold induction at 0.02 µg/mL was 4.4.

What about the GM-CSF promoter induction ([5]; GM1073, serum-free media) of the same molecule?
Its GM-CSF promoter induction is 7.5 fold.

And the fold induction at 0.02 µg/mL ([5]; Homo sapiens, GM1073, 20 ng/ml, 10.5 hours, serum-containing media)?
The fold induction at 0.02 µg/mL was 3.4.

What about the GM-CSF promoter induction ([5]; clone GM1088) of the same molecule?
Its GM-CSF promoter induction is 2.8 fold.

What about the GM-CSF promoter induction ([5]; clone GM1105) of the same molecule?
Its GM-CSF promoter induction is 2 fold.

With “GM-CSF: colony-stimulating factor GM-CSF” as the molecule, how does the “decrease in serum cholesterol levels” value [6] read?
Its value is “profound decreases in serum cholesterol levels”.

And the “average decrease in serum cholesterol” value ([6]; in vivo)?
The value was 37%.

With “Interleukin-1 beta: Interleukin-1 beta, known transcriptional inducer” as the molecule, how does the G-CSF promoter induction ([4]; G1002, 0.5 ng/ml, 10.5 hours, serum-containing media) read?
Its G-CSF promoter induction is 2.6 fold.

Which results are given for TNF-alpha?
G-CSF promoter induction ([1]; absence of EGF): 2.1 fold; G-CSF promoter induction ([1]; presence of EGF): 2.8 fold; G-CSF secretion [7]: increased G-CSF secretion; G-CSF promoter induction ([4]; G1002, 8.3 ng/ml, 10.5 hours, serum-containing media): 2 fold; G-CSF promoter induction ([4]; G1002, 7 hours, serum-free defined media with 20 ng/ml EGF): 3 fold; G-CSF promoter induction [4, 8]: 4 fold; GM-CSF promoter induction ([5]; clone GM1088): 2 fold; GM-CSF promoter induction ([5]; clone GM1105): 2 fold

B1: CSF-1: colony-stimulating factor-1 (protein, UniProt P09603 33-554, looked up)
Macrophage colony-stimulating …: EEVSEYCSHMIGSGHLQSLQRLIDSQMETSCQITFEFVDQEQLKDPVCYLKKAFLLVQDIMEDTMRFRDNTPNAIAIVQLQELSLRLKSCFTKDYEEHDKACVRTFYETPLQLLEKVKNVFNETKNLLDKDWNIFSKNCNNSFAECSSQDVVTKPDCNCLYPKAIPSSDPASVSPHQPLAPSMAPVAGLTWEDSEGTEGSSLLPGEQPLHTVDPGSAKQRPPRSTCQSFEPPETPVVKDSTIGGSPQPRPSVGAFNPGMEDILDSAMGTNWVPEEASGEASEIPVPQGTELSPSRPGGGSMQTEPARPSNFLSASSPLPASAKGQQPADVTGTALPRVGPVRPTGQDWNHTPQKTDHPSALLRDPPEPGSPRISSLRPQGLSNPSTLSAQPQLSRSHSSGSVLPLGELEGRRSTRDRRSPAEPEGGPASEGAARPLPRFNSVPLTDTGHERQSEGSFSPQLQESVFHLLVPSVILVLLAVGGLLFYRWRRRSHQEPQRADSPLEQPEGSPLTQDDRQVELPV
With B1 as the molecule, how does the “decrease in serum cholesterol levels” value [6] read?
Its value is “profound decreases in serum cholesterol levels”.
